Data reported in US11376271B1, “Methods of ameliorating the effects of alcoholic liver damage” (FULGENT LIFE INC., priority 2021, dated 2022).

Experiments:
[1] = system: AML12 cells; assay: Rescue from hydrogen peroxide (HP) genotoxicity: cell survival and NAD+ level; format: cell-based; settings: 500 μM HP + 250 μM compound, 3 h, AML12 cells
Procedure: Because the increasing extent of NAD+ concentration is of interest, whether NADH can improve the cell survival rate under the stressful conditions of depletion of NAD+ was also assessed. To that end, as genotoxicity can lead to DNA damage, activate poly(ADP-ribose) polymerases and induce NAD+ depletion, genotoxicity was tested. Strong genotoxicity will lead to severe consumption of NAD+ by cells, resulting in cell death. To test genotoxicity, AML12 cells were treated with 500 μM hydrogen peroxide (HP) for 3 hours in the presence or absence of 1 mM NADH, and then the cells were counted and NAD+ was detected in the samples co-treated with NADH (1 mM) or its vehicle. FIG. 4A is a graph comparing the cell survival rate of the HP treated cells, NADH treated cells, and the HP+NADH treated cells relative to a control. And FIG. 4B is a graph comparing the NAD+ level of the HP treated cells, NADH treated cells, and the HP+NADH treated cells relative to a control. The cell survival rates and cellular NAD+ levels in FIGS. 4A-B are expressed as mean±SD.
The effects of NADH and NMN at a lower concentration (250 μM) on AML12 cells was also tested in a separate assay. Specifically, AML12 cells were treated with 500 μM HP in the presence or absence of 250 μm NADH or NMN for 3 h. FIG. 4C is a graph comparing the cell survival rate of the HP treated cells, HP+NADH treated cells, and the HP+NMN treated cells relative to a control. And FIG. 4D is a graph comparing the NAD+ level of the HP treated cells, HP+NADH treated cells, and the HP+NMN treated cells relative to a control. The cell survival rate and cellular NAD+ levels in FIGS. 4C-D are expressed as mean±SD.

[2] = system: male C57BL/6J mice; assay: Tissue NAD+ content after intraperitoneal injection; format: in vivo; settings: 250 mg/kg intraperitoneal, 4 hours
Procedure: In the below in vivo assays, C57BL/6J male mice (The Jackson Laboratory) (40 days of age) were used. They were kept under standard laboratory conditions with a temperature of 22±1° C., dark/light cycles of 12/12 h, and relative humidity of 55±5%. All animals had free access to food and water, except for indicated fasting periods (and where not indicated for fasting periods of 2 hours before administration).
[…] Specifically, ten 8-week-old male C57BL/6J mice (The Jackson Laboratory) were kept in polycarbonate cages under a 12-h light/dark cycle with free access to food and water. […] Four hours later, the blood samples were collected by cardiac puncture and the mice were executed. Liver, brain, muscle, and adipose tissues were collected, instantly frozen in liquid nitrogen, and then stored at −80° C. until performance of the NAD+ analyses. […] Four hours later, the mice were killed and tissue samples were collected. All animal studies were performed according to the Guidelines for the Care and Use of Experimental Animals. For this NAD+ assay, about 100 mg of frozen tissue was crushed in liquid nitrogen and ultrasonically homogenized in 7% perchloric acid, and then the solution was neutralized and subjected to the NAD+ determination described here.
Data are indicated as mean±SD.

[3] = system: AML12 cells; assay: NAD+/NADH ratio in AML12 cells; settings: 1 mM, 6 h, vs control

NC(=O)c1ccc[n+]([C@@H]2O[C@H](COP(=O)([O-])O)[C@@H](O)[C@H]2O)c1 [NMN, nicotinamide mononucleotide, reference compound]
effect on NAD+ levels under HP [1]: much worse than that of NADH
effect on cell survival under HP [1]: much worse than that of NADH
increase of the concentration of NAD+ in the liver [2]: 170%
NAD+/NADH ratio [3]: significantly increase
